Test results from patent publication US20100331348A1, “TROPANE DERIVATIVES USEFUL AS PESTICIDES” (SYNGENTA CROP PROTECTION, INC., priority 2007, published 2010).
Like-named read-outs stand apart in the source and are kept apart here.

Assays:
Aedes aegypti = Aedes aegypti (Yellow fever mosquito) larvae test; format: in vivo; conditions: 48 h
[1] = test system: Erysiphe graminis f.sp. tritici; test: Erysiphe graminis f.sp. tritici (wheat powdery mildew) leaf disk assay; format: in vivo; conditions: Blumeria graminis, foliar, 96 h, preventive, four days after inoculation, read-out: control of fungal infection, Erysiphe graminis fsp. tritici
Pyricularia oryzae = test: whole plant or invertebrate; format: in vivo; conditions: foliar, 96 h
Plasmopara viticola = Plasmopara viticola (downy mildew of grapevine) leaf disk assay; format: in vivo; conditions: foliar, 168 h, preventive, seven days after inoculation, read-out: control of fungal infection, Plasmopara viticola
Tetranychus urticae = conditions: foliar, 192 h, read-out: control of Tetranychus urticae
Heliothis virescens = Heliothis virescens (Tobacco budworm) egg test on artificial diet; conditions: 96 h, read-out: control of Heliothis virescens
[2] = test system: Puccinia recondita f.sp. tritici; test: Puccinia recondita f.sp. tritici (wheat brown rust) leaf disk assay; format: in vivo; conditions: foliar, 216 h, preventive, nine days after inoculation, read-out: control of fungal infection, Puccinia recondita f.sp. tritici
Phytophthora infestans = test: whole plant or invertebrate; format: in vivo; conditions: foliar, 96 h, read-out: control of fungal infection, Phytophthora infestans
Plutella xylostella = Plutella xylostella (Diamond back moth) artificial diet test; conditions: 120 h, read-out: control of Plutella xylostella
Pythium ultimum = Pythium ultimum (Damping off) growth inhibition in potato dextrose broth; format: cell-based; conditions: Globisporangium ultimum, 48 hours, read-out: control of fungal infection, Pythium ultimum
[3] = read-out: control of fungal infection, Pyricularia oryzae (at least 60% list)
[4] = read-out: control of fungal infection, Pyricularia oryzae (at least 80% list)

SMILES	pest or weed control at 2 ppm (Aedes aegypti) [%]	pest or weed control at 200 ppm [1] [%]	pest or weed control at 200 ppm (Pyricularia oryzae; [3]) [%]	pest or weed control at 200 ppm (Plasmopara viticola) [%]	pest or weed control at 200 ppm (Tetranychus urticae) [%]	pest or weed control at 200 ppm (Heliothis virescens) [%]	pest or weed control at 200 ppm [2] [%]	pest or weed control at 200 ppm (Phytophthora infestans) [%]	pest or weed control at 200 ppm (Plutella xylostella) [%]	pest or weed control at 200 ppm (Pyricularia oryzae; [4]) [%]	inhibition of growth at 200 ppm (Pythium ultimum) [%]
Cc1csc2ncnc(N3[C@@H]4CC[C@H]3CC(Oc3ccc(C(F)(F)F)cn3)C4)c12 (stereo partly drawn) [Example 2.71]	≥ 80	≥ 80	≥ 60	≥ 80	≥ 80	–	–	–	–	–	–
FC(F)(F)c1ccc(OC2C[C@H]3CC[C@@H](C2)N3c2ncnc3ccccc23)nc1 (stereo partly drawn) [Example 2.85]	≥ 80	≥ 80	≥ 60	–	≥ 80	≥ 80	–	–	–	–	–
CCc1ncnc(N2C3CCC2CC(=NOCc2ccccc2)C3)c1Cl [Example 5.5]	≥ 80	≥ 80	–	–	–	≥ 80	≥ 80	≥ 80	≥ 80	–	–
CCc1ncnc(N2C3CCC2CC(=CCOc2ccc(Cl)c(OC)c2)C3)c1Cl [Example 3.13]	≥ 80	–	–	–	–	≥ 80	≥ 80	–	–	≥ 80	–
CCc1ncnc(N2C3CCC2CC(=NOCc2ccc(C#N)cc2)C3)c1Cl [Example 5.14]	–	≥ 80	–	–	–	≥ 80	≥ 80	–	≥ 80	≥ 80	–
CCc1ncnc(N2C3CCC2CC(=NOCc2ccc(Br)cc2F)C3)c1Cl [Example 5.85]	–	–	–	–	≥ 80	≥ 80	–	–	≥ 80	–	–
CCc1ncnc(N2[C@@H]3CC[C@H]2CC(Oc2ccc(C)nc2)C3)c1Cl (stereo partly drawn) [Example 2.151]	≥ 80	≥ 80	–	–	–	–	–	–	–	–	≥ 60
CCc1ncnc(N2C3CCC2CC(=NOCc2noc(C)n2)C3)c1Cl [Example 5.92]	≥ 80	≥ 80	–	–	≥ 80	≥ 80	≥ 80	–	≥ 80	–	–
Cc1ccc(CON=C2CC3CCC(C2)N3c2ncnc3sccc23)cc1 [Example 5.145]	≥ 80	≥ 80	≥ 60	≥ 80	≥ 80	≥ 80	≥ 80	≥ 80	≥ 80	–	–
CCc1ncnc(N2C3CCC2CC(Cc2ccc(OC)cc2)C3)c1Cl (stereo not drawn) [Example 7.32]	≥ 80	–	–	–	≥ 80	≥ 80	≥ 80	–	≥ 80	–	–
Cn1nc(C(F)(F)F)cc1C(=O)N1[C@@H]2CC[C@H]1CC(Oc1ccc(C(F)(F)F)cn1)C2 (stereo partly drawn) [Example 2.222]	–	≥ 80	–	–	–	≥ 80	–	–	–	–	–
C#CCN(CC#C)C1C[C@H]2CC[C@@H](C1)N2c1ncnc(CC)c1Cl (stereo partly drawn) [Example 4.19]	–	–	–	–	–	≥ 80	≥ 80	–	–	–	–
FC(F)(F)c1ccc(OC2C[C@H]3CC[C@@H](C2)N3c2ccnc3c(Cl)cccc23)nc1 (stereo partly drawn) [Example 2.206]	–	–	≥ 60	≥ 80	≥ 80	–	–	–	–	–	–
COCc1ncnc(N2[C@@H]3CC[C@H]2CC(Oc2ccc(C(F)(F)F)cn2)C3)c1OC (stereo partly drawn) [Example 2.167]	–	≥ 80	–	–	–	≥ 80	–	–	–	–	–
Fc1ccc(F)c(CON=C2CC3CCC(C2)N3c2ncnc3sccc23)c1F [Example 5.228]	≥ 80	≥ 80	≥ 60	≥ 80	≥ 80	–	≥ 80	≥ 80	≥ 80	–	–
N#Cc1ccc(CON=C2CC3CCC(C2)N3c2ncnc3sccc23)cc1 [Example 5.163]	≥ 80	≥ 80	–	–	–	≥ 80	≥ 80	≥ 80	≥ 80	≥ 80	–
